Three molecules from PMC9653649 (Molecules, 2022) can be followed below.

Data set [1] deals with Human Dermal Fibroblast (HDF) cell line. The data set is described as follows: Cell viability using MTT assay. Format: cell-based. Particulars: 24 h, 0.1-100 µM, read-out: IC50 against fibroblast cells. Here is the method: The synthesized compounds were screened for their cytotoxic activities against fibroblast cell lines at different concentrations for 24 h using MTT assay. […] Human Dermal Fibroblast (HDF) cell line was bought from the American Type Culture Collection (ATCC; Minnesota, USAHB-8065). It was cultured in Park Memorial Institute (RPMI-1640) culture media with glutamine 2 mM (bio west, Nampa, cat. no. L0498-500), 10% fetal bovine serum (PAA, Pasching Austria, cat. no. A11-151) and penicillin with streptomycin 1% (Lonza, Verviers, Belgium, cat. no. DE17-602E). The HDF cells were grown in 50 cm^2 flask (Greinerbio-one GmbH Maybach-str. 272636 Frickenhausen, Germany) and preserved in a typical humidified incubator supplied with 5% CO2, 95% air at 37 °C (New Brunswick Scientific-Innova co-170). Cells were washed with cold phosphate-buffered saline, trypsinized, harvested and centrifuged to form cell pellets. The cultured HDFa were plated in 96 well microplates at a concentration of 5 × 10^4 cells per well 24 h before the MTT assay to allow microplate adherence. MTT Reagent was provided, prepared for use, and acquired from Biospes, China, Cat n#BAR1005-1. According to the manufacturer protocol, the cultured cells were presented with different concentrations of the assessed agents. 20 μL of MTT solution was filled with each well. For 4 h, the plate was kept at 37 °C. After incubation, 100 μL of formazan diluent buffer (Biospes, Chongqing, China, Cat n#BAR1005-1) was poured into each well. ELISA plate reader (Stat Fax 2200, Awareness Technologies, Palm City, FL, USA) measured color absorbance at 540 nm. Three readings were taken on three different days and averaged for each sample. At last, cell survival was determined according to the following equation: %cell survival=Asample/Acontrol×100% Acontrol is the absorbance of the cell culture after adding MTT and formazan buffer, but without treatment by any drug candidate. […] IC50 values were then calculated by curve-fitting involving non-linear regression. […]
Background: Tetrazolium assays rely on reduction of a dye to a coloured formazan, in cell work by metabolically active cells.

A further data set concerns the target T1, ovine COX-1 (Ovis aries, UniProt P05979).
T1 sequence (P05979 25-600): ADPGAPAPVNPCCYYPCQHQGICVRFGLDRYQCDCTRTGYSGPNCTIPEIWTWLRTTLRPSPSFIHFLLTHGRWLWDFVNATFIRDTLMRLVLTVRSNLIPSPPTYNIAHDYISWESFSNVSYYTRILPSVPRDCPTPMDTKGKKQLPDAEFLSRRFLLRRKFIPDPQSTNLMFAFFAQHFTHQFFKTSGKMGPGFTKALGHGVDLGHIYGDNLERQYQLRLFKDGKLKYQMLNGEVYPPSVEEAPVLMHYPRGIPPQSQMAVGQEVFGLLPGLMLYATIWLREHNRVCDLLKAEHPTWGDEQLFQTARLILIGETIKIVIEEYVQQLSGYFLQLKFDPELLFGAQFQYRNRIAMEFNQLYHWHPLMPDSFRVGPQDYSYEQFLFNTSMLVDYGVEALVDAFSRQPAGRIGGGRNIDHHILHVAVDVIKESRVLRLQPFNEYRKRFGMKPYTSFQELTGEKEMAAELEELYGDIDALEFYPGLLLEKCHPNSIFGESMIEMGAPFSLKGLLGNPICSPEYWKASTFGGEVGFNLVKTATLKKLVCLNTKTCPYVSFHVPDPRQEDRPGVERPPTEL
Description: In vitro COX-1 isozyme inhibition assay (EIA/ELISA kit, Cayman). Background: ELISA stands for enzyme-linked immunosorbent assay.

The target in the next data set is T2, human recombinant COX-2 (Homo sapiens, UniProt P35354).
T2 sequence (P35354 18-604): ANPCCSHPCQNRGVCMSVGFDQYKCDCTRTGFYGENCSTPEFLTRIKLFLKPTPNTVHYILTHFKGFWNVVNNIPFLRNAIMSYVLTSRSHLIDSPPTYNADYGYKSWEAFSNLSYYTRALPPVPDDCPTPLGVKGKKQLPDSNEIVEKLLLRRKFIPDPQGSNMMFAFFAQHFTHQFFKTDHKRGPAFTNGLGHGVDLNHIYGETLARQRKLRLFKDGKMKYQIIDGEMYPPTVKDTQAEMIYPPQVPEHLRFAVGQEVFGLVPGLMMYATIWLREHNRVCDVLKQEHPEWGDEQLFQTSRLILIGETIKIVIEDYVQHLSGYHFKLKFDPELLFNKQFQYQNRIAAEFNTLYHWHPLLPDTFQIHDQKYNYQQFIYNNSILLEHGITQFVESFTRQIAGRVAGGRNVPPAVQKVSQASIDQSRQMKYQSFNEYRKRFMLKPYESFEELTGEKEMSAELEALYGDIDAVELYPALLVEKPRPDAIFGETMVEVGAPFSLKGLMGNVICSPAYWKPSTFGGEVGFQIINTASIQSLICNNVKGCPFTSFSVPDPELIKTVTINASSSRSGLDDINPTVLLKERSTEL
The data set is described as follows: In vitro COX-2 isozyme inhibition assay (EIA/ELISA kit, Cayman). Particulars: for COX-2 SI (COX-1 IC50/COX-2 IC50): selectivity index.

A further data set relates to COX-2. The data set is described as follows: Western blot analysis of COX-2. Type of data set: cell-based. Conditions: versus untreated control. The text has this:
(§1) The anti-inflammatory activities of compounds HI and HL were further confirmed by Western blotting analysis of COX-1/COX-2.
(§2) For validating the anti-inflammatory pathway at the protein expression level, we used the immunoblotting (Western blot) technique.
A general note: A western blot detects proteins with antibodies after separation by electrophoresis.

The test system of another data set is COX-1. The data set is described as follows: Western blot analysis of COX-1. Format: cell-based. Particulars: versus untreated control.
Excerpt: as §1, §2

Data set [2] is described as follows: Solubility examined in various solvents. Type of data set: physicochemical. Conditions: organic solvents. The text has this: . H% = 7.46 (7.51); N% = 8.63 (8.55), calc. (found), respectively (Table 1).

As a reminder, the melting point is the temperature of the solid-liquid transition. The IC50 is the concentration that inhibits the measured activity by half.

Consider `CC(C)Cc1ccc(C(C)C(=O)NN)cc1` (stereo not drawn) [HI, 2-(4-Isobutylphenyl) Propane Hydrazide], for which the melting point stood at 85 °C. The IC50 in data set [1] came to 3.9 µM. On ovine COX-1, the concentration for half-maximal inhibition (IC50) came out at 7.5 µM. On human recombinant COX-2, the IC50 came out at 4.3 µM and the “COX-2 SI (COX-1 IC50/COX-2 IC50)” value is 1.7. The “COX-2 protein level by Western blot” value in the data set with COX-2 is “downregulation”. In addition, the “COX-1 protein level by Western blot” value in the data set with COX-1 was “downregulation”.

For `CC(C)Cc1ccc(C(C)C(=O)NN=Cc2ccccc2O)cc1` (stereo not drawn) [HL], the half-maximal inhibitory concentration (IC50) turned out to be 4.13 µM in data set [1], 8.6 µM against ovine COX-1 and 4.9 µM at human recombinant COX-2. Moreover, at human recombinant COX-2, the “COX-2 SI (COX-1 IC50/COX-2 IC50)” value is 1.8. The “COX-2 protein level by Western blot” value in the data set on COX-2 is recorded as “downregulation”. Moreover, the “COX-1 protein level by Western blot” value in the data set on COX-1 was “downregulation”. The Solubility in solvents result in data set [2] is “soluble in DMSO, DMF, ethanol, methanol, and acetonitrile”.

As to `CC(C)Cc1ccc(C(C)C(=O)O)cc1` (stereo not drawn) [Ibuprofen, reference compound], the IC50 in data set [1] worked out at 30.6 µM.
